Test results reported in patent US7659277B2, “Ubiquitin ligase inhibitors and methods related thereto” (Proteologies, Ltd., priority 2003, dated 2010).
Where two headings read alike, the source gives them in different places.

Biological target: T1, POSH (Homo sapiens, UniProt Q7Z6J0)
T1 construct: GST-POSH lot NB81/p.118 3.6 mg/ml; fused on or other part: GST tag, used for detection with anti-GST XL665
T1 sequence (Q7Z6J0 1-269 limits assumed): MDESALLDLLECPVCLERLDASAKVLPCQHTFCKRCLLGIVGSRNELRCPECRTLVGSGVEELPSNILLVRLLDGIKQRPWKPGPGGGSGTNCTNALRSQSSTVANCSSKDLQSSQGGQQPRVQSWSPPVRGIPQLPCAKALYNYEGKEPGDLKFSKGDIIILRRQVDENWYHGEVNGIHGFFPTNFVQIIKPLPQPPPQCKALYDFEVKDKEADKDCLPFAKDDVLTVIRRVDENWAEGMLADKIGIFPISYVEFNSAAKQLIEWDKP
Assay: Selectivity (% A in 1 μM), ubiquitin ligase activity of POSH
Assay type: biochemical
Details: read-out: Selectivity (% A* in 1 μM) POSH
Outline: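 GST-POSH at 33 nM was preincubated 30 min at RT with compounds (1 mM stocks in DMSO, 5 μl into 100 μl) before addition to the E1/E2 enzyme mix. Dose-response runs used 44 nM to 4.44 μM compound in triplicate, with DMSO-only and no-E3 controls.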

[1] = % activity at 1 μM compound, control is related to 100% activity, HTS protocol

| Structure (SMILES) | remaining activity at 1 µM [1] | remaining activity at 1 µM |
| --- | --- | --- |
| O=C(NCc1ccc(Cl)cc1)C(=O)Nc1ccccc1 [Compound 104] | 111% | – |
| O=C1c2ccccc2-c2nc3nonc3nc21 [Compound 91] | – | 11% |
| COc1ccc(Nc2ccc(O)c3c2C(=O)c2ccccc2C3=O)cc1 [Compound 100] | 99% | – |
| O=C(/C=C/c1cccnc1)c1ccc(C(=O)/C=C/c2cccnc2)cc1 [Compound 92] | 21% | – |
| COc1ccc(C(=O)CC2=C(O)C(=O)c3ccccc3C2=O)cc1 [Compound 89] | 45% | – |
| CN(C)c1ccc(/C=C2/C(=O)NC(=O)N(C3CCCCC3)C2=O)cc1 [Compound 3] | 47% | – |
| O=C(Nc1cccc2c(NC(=O)C3C4CCCCC43)cccc12)C1C2CCCCC21 (stereo not drawn) [Compound 97] | – | 13% |
| O=c1oc2ccccc2c(O)c1C(=S)Nc1ccccc1 [Compound 96] | – | 105% |
| COc1cc(C2Nc3ccccc3NC3=C2C(=O)CC(C)(C)C3)cc(Br)c1O (stereo not drawn) [Compound 102] | 52% | – |
| Cc1ccc(C(=O)NN=C2CCC(=NNC(=O)c3ccc(C)cc3)CC2)cc1 [Compound 93] | 21% | – |
| O=C(NC(C(Cl)(Cl)Cl)S(=O)(=O)c1ccccc1)c1ccc(Cl)cc1Cl (stereo not drawn) [Compound 88] | – | 172% |
| Cc1cc(OC(=O)Cn2c(=O)sc3ccccc32)ccc1Cl [Compound 103] | – | 102% |
| O=C(O)COc1ccc2c(c1)oc(=O)c1ccccc12 [Compound 85] | – | 26% |
| O=C1NC(=O)N(c2ccccc2)C(=O)/C1=C\c1ccc2c(c1)OCO2 [Compound 4] | 48% | – |
| Cc1cc(O)c(C(=O)/C=C/c2cccc(I)c2)c(=O)o1 [Compound 87] | – | 33% |
| COC(=O)C1=C(C(=O)OC)SC(=C2C(=S)C(C)(C)N(C(C)=O)c3cc(C)ccc32)S1 [Compound 99] | 36% | – |
| O=C(Cc1ccccc1)N1N=CCC1(O)c1ccc(F)cc1 (stereo not drawn) [Compound 94] | 71% | – |
| Cc1[nH]c(=O)c(C(=O)/C=C/c2ccccc2F)c2c1CCCC2 [Compound 95] | 12% | – |
